The experiment relates to L1210 leukemia ip in BDF1 mice, survival T/C. Nature of the experiment: NCI In Vivo Anticancer Drug Screen. Data for tumor model L1210 Leukemia (intraperitoneal) in B6D2F1 (BDF1) mice. The settings on record: endpoint: mean survival time, higher = longer survival. An outline of the steps:
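Read-out is survival time, reported as the treated-group measurement over the vehicle-control measurement.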

Where [1] appears, read: dose: 100.0 mg/kg/injection, schedule: Q01DX001 (ip), vehicle: Klucel (hydroxypropylcellulose) (HPC).
Setting [2] is: dose: 100.0 mg/kg/injection, schedule: Q04DX002 (ip), vehicle: Klucel (hydroxypropylcellulose) (HPC).
Setting [3] is: dose: 100.0 mg/kg/injection, schedule: Q04DX003 (ip), vehicle: Klucel (hydroxypropylcellulose) (HPC).
Setting [4] is: dose: 200.0 mg/kg/injection, schedule: Q01DX001 (ip), vehicle: Klucel (hydroxypropylcellulose) (HPC).
The mark [5] stands for this setting: dose: 200.0 mg/kg/injection, schedule: Q04DX003 (ip), vehicle: Klucel (hydroxypropylcellulose) (HPC).
[6] abbreviates: dose: 400.0 mg/kg/injection, schedule: Q01DX001 (ip), vehicle: Klucel (hydroxypropylcellulose) (HPC).
Setting [7] is: dose: 400.0 mg/kg/injection, schedule: Q04DX003 (ip), vehicle: Klucel (hydroxypropylcellulose) (HPC).

Values joined by “and” are separate entries in the source; they are usually repeats but may differ in a detail not shown here. Equal entries are not always repeated. Toxic doses and inconclusive results are not listed.

In the case of `CC1(CNC(=O)C(=O)NCC2(C)CO2)CO1` (stereo not drawn), the T/C is, setting by setting: (dose: 15.0 mg/kg/injection, schedule: Q01DX009 (ip), vehicle: acetone) 98 % of control; (dose: 23.0 mg/kg/injection, schedule: Q01DX009 (ip), vehicle: acetone) 98 % of control; (dose: 25.0 mg/kg/injection, schedule: Q01DX Z (ip), vehicle: saline) 121 % of control; (dose: 40.0 mg/kg/injection, schedule: Q01DX Z (ip), vehicle: other) 120 % of control; (dose: 50.0 mg/kg/injection, schedule: Q01DX001 (ip), vehicle: saline) 101 % of control; (dose: 50.0 mg/kg/injection, schedule: Q01DX009 (ip), vehicle: saline) 124 % of control. The T/C is, setting by setting: (dose: 50.0 mg/kg/injection, schedule: Q01DX Z (ip), vehicle: saline) 116 % of control; (dose: 50.0 mg/kg/injection, schedule: Q04DX003 (ip), vehicle: saline) 124 % of control; (dose: 100.0 mg/kg/injection, schedule: Q01DX001 (ip), vehicle: acetone) 123 % of control; (dose: 100.0 mg/kg/injection, schedule: Q01DX001 (ip), vehicle: saline) 110 % of control and 113 % of control; (dose: 100.0 mg/kg/injection, schedule: Q01DX009 (ip), vehicle: saline) 150 % of control; (dose: 100.0 mg/kg/injection, schedule: Q01DX Z (ip), vehicle: other) 96 % of control. The T/C (dose: 132.0 mg/kg/injection, schedule: Q04DX003 (ip), vehicle: saline) is 117 % of control; the T/C (dose: 150.0 mg/kg/injection, schedule: Q01DX009 (ip), vehicle: saline) was 157 % of control and 163 % of control; the T/C (dose: 150.0 mg/kg/injection, schedule: Q01DX Z (ip), vehicle: carboxymethylcellulose (CMC)) is 121 % of control; the T/C (dose: 200.0 mg/kg/injection, schedule: Q01DX001 (ip), vehicle: acetone) is 119 % of control; the T/C (dose: 200.0 mg/kg/injection, schedule: Q01DX001 (ip), vehicle: saline) was 120 % of control; the T/C (dose: 200.0 mg/kg/injection, schedule: Q04DX003 (ip), vehicle: saline) is 157 % of control and 166 % of control. Also, the T/C is 180 % of control (dose: 225.0 mg/kg/injection, schedule: Q01DX009 (ip), vehicle: saline); 96 % of control (dose: 225.0 mg/kg/injection, schedule: Q01DX Z (ip), vehicle: carboxymethylcellulose (CMC)); 94 % of control (dose: 300.0 mg/kg/injection, schedule: Q01DX009 (ip), vehicle: saline); 158 % of control and 189 % of control (dose: 300.0 mg/kg/injection, schedule: Q04DX003 (ip), vehicle: saline); 106 % of control (dose: 338.0 mg/kg/injection, schedule: Q01DX Z (ip), vehicle: other); 204 % of control (dose: 400.0 mg/kg/injection, schedule: Q01DX001 (ip), vehicle: acetone).

In the case of `O=S(=O)(C1CCCCC1)N1N=NC2CCCCC21` (stereo not drawn), the T/C reads like this: (dose: 50.0 mg/kg/injection, schedule: Q01DX009 (ip), vehicle: saline with Tween-80) 93 % of control; (dose: 100.0 mg/kg/injection, schedule: Q01DX009 (ip), vehicle: saline with Tween-80) 90 % of control.

As to `COc1ccc([N+](=O)[O-])cc1NC(=O)Nc1cc(C)on1`, the T/C reads like this: under setting [1], 91 % of control; (dose: 100.0 mg/kg/injection, schedule: Q01DX009 (ip), vehicle: Klucel (hydroxypropylcellulose) (HPC)) 96 % of control and 87 % of control; under setting [2], 103 % of control and 91 % of control; under setting [3], 92 % of control; under setting [4], 95 % of control; (dose: 200.0 mg/kg/injection, schedule: Q01DX009 (ip), vehicle: Klucel (hydroxypropylcellulose) (HPC)) 98 % of control and 91 % of control. Also, the T/C (dose: 200.0 mg/kg/injection, schedule: Q04DX002 (ip), vehicle: Klucel (hydroxypropylcellulose) (HPC)) is 97 % of control and 91 % of control; the T/C under setting [5] is 89 % of control; the T/C under setting [6] was 86 % of control; the T/C (dose: 400.0 mg/kg/injection, schedule: Q01DX009 (ip), vehicle: Klucel (hydroxypropylcellulose) (HPC)) was 95 % of control and 98 % of control; the T/C (dose: 400.0 mg/kg/injection, schedule: Q04DX002 (ip), vehicle: Klucel (hydroxypropylcellulose) (HPC)) was 97 % of control; the T/C under setting [7] was 96 % of control.

On to `O=C1NC(=O)C2(CCCc3ccccc32)N1` (stereo not drawn), for which the T/C reads like this: (dose: 25.0 mg/kg/injection, schedule: Q04DX002 (ip), vehicle: Klucel (hydroxypropylcellulose) (HPC)) 110 % of control; (dose: 50.0 mg/kg/injection, schedule: Q04DX002 (ip), vehicle: Klucel (hydroxypropylcellulose) (HPC)) 104 % of control; under setting [2], 100 % of control.

In the case of `COC(=O)C1CC(=O)c2c(O)ccc(O)c2C1` (stereo not drawn), the T/C was 96 % of control (dose: 12.5 mg/kg/injection, schedule: Q04DX003 (ip), vehicle: Klucel (hydroxypropylcellulose) (HPC)); 104 % of control (dose: 25.0 mg/kg/injection, schedule: Q04DX003 (ip), vehicle: Klucel (hydroxypropylcellulose) (HPC)); 98 % of control (dose: 50.0 mg/kg/injection, schedule: Q04DX003 (ip), vehicle: Klucel (hydroxypropylcellulose) (HPC)); 92 % of control under setting [1]; 100 % of control under setting [3]; 92 % of control under setting [4]. Also, the T/C runs as follows: under setting [5], 101 % of control; under setting [6], 90 % of control; under setting [7], 106 % of control.

Regarding `COC(c1ccccc1)C(Br)C(=O)c1ccccc1` (stereo not drawn), the T/C by setting is: (dose: 100.0 mg/kg/injection, schedule: Q04DX003 (ip), vehicle: acetone) 96 % of control; (dose: 200.0 mg/kg/injection, schedule: Q04DX003 (ip), vehicle: acetone) 101 % of control; (dose: 400.0 mg/kg/injection, schedule: Q04DX003 (ip), vehicle: acetone) 95 % of control.

Source of the values: PubChem BioAssay AID248 (DTP/NCI, 2004).
